# What was measured:
# [1] = target: T1, PAF receptor (human platelet plasma membrane) (Homo sapiens, UniProt P25105); assay: Inhibition of [^3 H]-PAF Receptor Binding; settings: human platelet plasma membranes; [^3 H]-PAF 0.5 nM; 0° C., 1 hour, pH 7.0
# T1 construct: Platelet concentrates were obtained from a hospital blood bank; from tissue; host or cells: human platelets (hospital blood bank concentrates), lysed platelet membranes
# Method: (§1) Compounds of general formula I inhibit PAF-induced functions in both the cellular and tissue levels by changing the PAF binding to its specific receptor site. The ability of compounds of general formula I to inhibit the binding of PAF to its specific receptor binding site on human platelet plasma membranes was measured according to Example 150. The ability of compounds of general formula I to reverse the hypotension caused by an infusion of PAF in rats was measured according Example 151.
# Inhibition of [^3 H]-PAF Receptor Binding
# The inhibition of [^3 H]-PAF binding to human platelet plasma membrane by compounds of general formula I was determined by isotopic labelling and filtration techniques. Platelet concentrates were obtained from a hospital blood bank. These platelet concentrates (500-2500 ml.) were centrifuged at 800 rpm for 10 minutes in a SORVALL RC3B centrifuge to remove the red blood cells present. (The word SORVALL is a trade mark.) The supernatant was subsequently centrifuged at 3,000 rpm in a SORVALL RC3B centrifuge to pellet the platelets present. The platelet rich pellets were resuspended in a minimum volume of buffer (150 mM NaCl, 10 mM Tris, 2 mM EDTA, pH 7.5) and layered onto Ficoll-Paque gradients, 9 ml platelet concentrate to 2 ml Ficoll, and centrifuged at 1,900 rpm for 15 minutes in a SORVALL RT6000 centrifuge. This step removes the residual red blood cells and other nonspecific material such as lymphocytes from the preparation. The platelets which form a band between the plasma and the Ficoll were removed, resuspended in the above buffer and centrifuged at 3,000 rpm for 10 minutes in a SORVALL RT6000 centrifuge. […]
# The assay was conducted by preparing a series of Tris-buffered solutions of the selected antagonist of predetermined concentrations. […] Each washed residue was dried under vacuum on a sampling manifold and placed into vials containing 20 ml of OPTIPHASE MP scintillation fluid and the radioactivity counted in a liquid scintillation counter. […]
# PAF-induced hypotension = assay: Inhibition of PAF-Induced Hypotension in the Rat; format: in vivo, rat (male Sprague-Dawley); settings: iv, i.v. bolus, PAF 100 ng/kg/min i.v. infusion, anaesthetised rats, read-out: ED50 (dose to cause a 50% reversal of the hypotensive PAF response)
# Method: as §1
# Inhibition of PAF-Induced Hypotension in the Rat
# Male Sprague-Dawley rats (300-350 g) were anaesthetised with a mixture of sodium pentobarbitone, 22.5 mg/kg and thiopental 62.5 mg/kg. Through a midline incision in the neck, the trachea was cannulated and the animals breathed spontaneously. A carotid artery was cannulated for the measurement of blood pressure and this signal was used to trigger a rate meter to measure heart rate. Both jugular veins were cannulated: one for the infusion of PAF and the other for the bolus administration of test compounds.
# PAF, 100 ng/kg/min was infused i.v. until a sustained fall in mean blood pressure of 50 mmHg was achieved. […] The peak of this reversal was measured and the dose to cause a 50% reversal of the hypotensive PAF response (ED50) calculated by straight line interpolation and the results are presented in Table 2.
# T1 sequence (P25105 whole entry): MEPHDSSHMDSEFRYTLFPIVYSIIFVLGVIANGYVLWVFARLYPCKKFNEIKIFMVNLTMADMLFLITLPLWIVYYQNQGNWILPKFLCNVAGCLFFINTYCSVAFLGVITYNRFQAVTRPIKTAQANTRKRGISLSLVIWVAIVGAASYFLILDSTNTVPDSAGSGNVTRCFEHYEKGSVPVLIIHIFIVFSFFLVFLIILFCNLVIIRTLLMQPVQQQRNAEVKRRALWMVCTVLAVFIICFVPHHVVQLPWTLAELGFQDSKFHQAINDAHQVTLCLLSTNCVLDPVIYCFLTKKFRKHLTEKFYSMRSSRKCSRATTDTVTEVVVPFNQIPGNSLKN
SMILES,IC50 [1] [nM],ED50 (PAF-induced hypotension) [mg/kg]
"CCOC(=O)[C@H](CC(C)C)NC(=O)CCCCCn1c(C)nc2cnccc21 [Example 1B, N-6-(2-methylimidazo[4,5-c]pyridin-1-yl)hexanoyl-L-leucine ethyl ester]",15,
"CCOC(=O)[C@H](CC(C)C)NC(=O)CCCn1c(C)nc2cnccc21 [Example 11B, N-4-(2-methylimidazo[4,5-c]pyridin-1-yl)butanoyl-L-leucine ethyl ester]",3,0.0305
"CCOC[C@H](CC(C)C)NS(=O)(=O)CCCn1c(C)nc2cnccc21 [Example 33B, N-4-(2-methylimidazo[4,5-c]pyridin-1-yl)propylsulphonyl-L-leucinyl ethyl ether]",,0.0018
"CCOC(=O)[C@H](CC(C)C)NC(=O)CCCCCCCCCCn1c(C)nc2cnccc21 [Example 98B, N-11-(2-methylimidazo[4,5-c]pyridin-1-yl)undecanoyl-L-leucine ethyl ester]",1,

# Source: patent publication US5563151A, “Amino acid derivatives as paf-receptor antagonists” (British Biotech Pharmaceuticals limited, priority 1992, dated 1996)
